Literature values, collected in US20260373079A1, “USE OF LONG-ACTING FLUTICASONE PROPIONATE INJECTABLE SUSPENSIONS FOR TREATING AND PREVENTING INFLAMMATIONS OF THE GASTROINTESTINAL TRACT” (EUPRAXIA PHARMACEUTICALS INC., priority 2022, published 2026).

Key:
[1] = for first pass metabolism, relative to fluticasone: in words
[2] = treatment of EoE; subcutaneous; weekly dosing recommended
[3] = EoE patients

C[C@H]1C[C@H]2[C@@H]3CCC4=CC(=O)C=C[C@]4(C)[C@@]3(Cl)[C@@H](O)C[C@]2(C)[C@@]1(O)C(=O)CO [beclomethasone]
first pass metabolism, relative to fluticasone [1]: substantially lower

CCC(=O)O[C@]1(C(=O)SCF)[C@H](C)C[C@H]2[C@@H]3C[C@H](F)C4=CC(=O)C=C[C@]4(C)[C@@]3(F)[C@@H](O)C[C@@]21C [fluticasone]
first-pass metabolism ([1]; by the liver): ~ 99%

C[C@]12C=CC(=O)C=C1CC[C@H]1[C@@H]3C[C@@H](O)[C@](O)(C(=O)CO)[C@@]3(C)C[C@H](O)[C@@]12F [triamcinolone]
first pass metabolism, relative to fluticasone [1]: substantially lower

Dupixent: a monoclonal antibody that is administered subcutaneously
effective in patients [2]: 60 % of patients
upper respiratory tract infections [3]: 18 % of patients
